{"source": "ChEMBL document CHEMBL4507288", "about": "(2021)", "key": {"[1]": {"target": "5-hydroxytryptamine receptor 2A (Homo sapiens, UniProt P28223)", "test": "GPCRScan assay: inhibition of 5-HT2A", "set-up": "radioligand conc. used [nm] 1.2 – 2.4, parental cells HEKT"}, "[2]": {"target": "Sodium-dependent noradrenaline transporter (Homo sapiens, UniProt P23975)", "sequence (P23975 whole entry)": "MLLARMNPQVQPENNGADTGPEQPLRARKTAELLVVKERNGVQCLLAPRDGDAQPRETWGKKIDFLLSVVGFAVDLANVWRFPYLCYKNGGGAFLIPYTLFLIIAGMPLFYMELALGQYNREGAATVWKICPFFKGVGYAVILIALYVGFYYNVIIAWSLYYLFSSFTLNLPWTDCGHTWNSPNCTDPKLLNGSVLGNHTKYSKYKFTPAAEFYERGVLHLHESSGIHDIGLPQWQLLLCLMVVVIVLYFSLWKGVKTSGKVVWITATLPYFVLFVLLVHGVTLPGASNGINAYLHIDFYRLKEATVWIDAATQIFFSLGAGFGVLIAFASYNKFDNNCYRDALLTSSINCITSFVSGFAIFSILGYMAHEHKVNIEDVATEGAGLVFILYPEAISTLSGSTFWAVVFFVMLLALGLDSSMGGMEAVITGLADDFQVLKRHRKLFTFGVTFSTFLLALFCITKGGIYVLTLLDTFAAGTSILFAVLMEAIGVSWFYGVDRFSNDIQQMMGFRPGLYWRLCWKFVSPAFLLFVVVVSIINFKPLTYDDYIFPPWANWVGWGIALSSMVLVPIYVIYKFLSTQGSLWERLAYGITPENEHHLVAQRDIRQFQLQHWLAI", "test": "GPCRScan assay: inhibition of NET", "set-up": "radioligand conc. used [nm] 1.3 – 5.0, parental cells stable HEK"}, "[3]": {"target": "5-hydroxytryptamine receptor 2B (Homo sapiens, UniProt P41595)", "test": "GPCRScan assay: inhibition of 5-HT2B", "set-up": "radioligand conc. used [nm] 1.0 – 2.0, parental cells stable HEK"}, "[4]": {"target": "Serine/threonine-protein kinase WNK2 (Homo sapiens) (UniProt Q9Y3S1)", "settings": "Compound concentration 1000.0 nM"}, "[5]": {"target": "Phosphatidylinositol 4-phosphate 5-kinase type-1 alpha (Homo sapiens) (UniProt Q99755)", "sequence (Q99755 whole entry)": "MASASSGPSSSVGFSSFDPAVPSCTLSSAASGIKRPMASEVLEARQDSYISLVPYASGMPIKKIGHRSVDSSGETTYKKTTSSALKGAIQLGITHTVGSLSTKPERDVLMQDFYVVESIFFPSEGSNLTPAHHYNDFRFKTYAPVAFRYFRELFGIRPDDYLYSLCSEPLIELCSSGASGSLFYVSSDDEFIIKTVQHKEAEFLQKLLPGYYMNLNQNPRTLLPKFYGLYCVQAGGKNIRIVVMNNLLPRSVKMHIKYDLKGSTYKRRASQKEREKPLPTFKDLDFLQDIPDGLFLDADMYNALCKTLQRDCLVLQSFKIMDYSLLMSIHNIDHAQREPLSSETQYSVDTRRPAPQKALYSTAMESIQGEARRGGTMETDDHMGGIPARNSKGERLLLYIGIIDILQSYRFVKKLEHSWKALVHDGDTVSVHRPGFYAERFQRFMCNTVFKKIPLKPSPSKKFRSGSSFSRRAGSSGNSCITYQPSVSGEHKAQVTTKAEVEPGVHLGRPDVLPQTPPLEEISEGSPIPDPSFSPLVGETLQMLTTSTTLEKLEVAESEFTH", "settings": "Compound concentration 1000.0 nM"}, "[6]": {"test_system": "Receptor-type tyrosine-protein kinase FLT3 (Homo sapiens), P36888 [D835Y]", "settings": "Compound concentration 1000.0 nM"}, "[7]": {"target": "Serine/threonine-protein kinase 38-like (Homo sapiens) (UniProt Q9Y2H1)", "sequence (Q9Y2H1 2-464 limits assumed)": "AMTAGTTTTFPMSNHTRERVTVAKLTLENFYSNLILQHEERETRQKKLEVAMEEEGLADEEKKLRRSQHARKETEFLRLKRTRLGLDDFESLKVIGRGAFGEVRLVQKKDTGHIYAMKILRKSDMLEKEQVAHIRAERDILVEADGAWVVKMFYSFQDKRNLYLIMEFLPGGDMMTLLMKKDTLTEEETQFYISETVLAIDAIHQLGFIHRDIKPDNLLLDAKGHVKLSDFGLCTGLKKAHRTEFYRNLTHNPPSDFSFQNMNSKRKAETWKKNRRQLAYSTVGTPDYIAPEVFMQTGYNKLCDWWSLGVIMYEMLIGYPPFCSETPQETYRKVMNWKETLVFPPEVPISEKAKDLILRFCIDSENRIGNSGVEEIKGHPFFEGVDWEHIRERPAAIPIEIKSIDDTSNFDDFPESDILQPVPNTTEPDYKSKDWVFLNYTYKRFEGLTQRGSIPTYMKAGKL", "settings": "Compound concentration 1000.0 nM"}, "[8]": {"test_system": "Mast/stem cell growth factor receptor Kit (Homo sapiens), P10721 [V559D,V654A]", "settings": "Compound concentration 1000.0 nM"}, "[9]": {"target": "Activin receptor type-2B (Homo sapiens) (UniProt Q13705)", "settings": "Compound concentration 1000.0 nM"}, "[10]": {"target": "Tyrosine-protein kinase receptor TYRO3 (Homo sapiens) (UniProt Q06418)", "settings": "Compound concentration 1000.0 nM"}, "[11]": {"target": "Serine/threonine-protein kinase NLK (Homo sapiens) (UniProt Q9UBE8)", "settings": "Compound concentration 1000.0 nM"}, "[12]": {"target": "Ribosomal protein S6 kinase alpha-4 (Homo sapiens) (UniProt O75676)", "settings": "Compound concentration 1000.0 nM"}, "[13]": {"target": "Dual specificity mitogen-activated protein kinase kinase 4 (Homo sapiens) (UniProt P45985)", "settings": "Compound concentration 1000.0 nM"}, "[14]": {"target": "Serine/threonine-protein kinase PAK 5 (Homo sapiens) (UniProt Q9P286)", "settings": "Compound concentration 1000.0 nM"}, "[15]": {"test_system": "Mast/stem cell growth factor receptor Kit (Homo sapiens), P10721 [D816V]", "settings": "Compound concentration 1000.0 nM"}, "[16]": {"target": "Serine/threonine-protein kinase 26 (Homo sapiens) (UniProt Q9P289)", "sequence (Q9P289 2-416 limits assumed)": "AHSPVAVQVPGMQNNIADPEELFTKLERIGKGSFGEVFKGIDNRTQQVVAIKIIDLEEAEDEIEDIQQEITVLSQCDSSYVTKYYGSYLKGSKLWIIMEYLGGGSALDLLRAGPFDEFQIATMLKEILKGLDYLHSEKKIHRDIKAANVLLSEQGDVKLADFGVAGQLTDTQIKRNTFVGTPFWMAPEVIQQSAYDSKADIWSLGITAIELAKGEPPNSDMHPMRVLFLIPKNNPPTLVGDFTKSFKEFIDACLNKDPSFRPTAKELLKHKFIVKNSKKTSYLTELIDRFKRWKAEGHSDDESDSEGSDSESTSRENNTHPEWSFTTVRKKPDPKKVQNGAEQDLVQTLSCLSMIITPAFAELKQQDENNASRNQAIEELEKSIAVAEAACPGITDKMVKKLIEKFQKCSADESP", "settings": "Compound concentration 1000.0 nM"}, "[17]": {"target": "Tyrosine-protein kinase Yes (Homo sapiens) (UniProt P07947)", "settings": "Compound concentration 1000.0 nM"}, "[18]": {"target": "Serine/threonine-protein kinase PLK3 (Homo sapiens) (UniProt Q9H4B4)", "settings": "Compound concentration 1000.0 nM"}, "[19]": {"target": "Serine/threonine-protein kinase B-raf (Homo sapiens) (UniProt P15056)", "sequence (P15056 whole entry)": "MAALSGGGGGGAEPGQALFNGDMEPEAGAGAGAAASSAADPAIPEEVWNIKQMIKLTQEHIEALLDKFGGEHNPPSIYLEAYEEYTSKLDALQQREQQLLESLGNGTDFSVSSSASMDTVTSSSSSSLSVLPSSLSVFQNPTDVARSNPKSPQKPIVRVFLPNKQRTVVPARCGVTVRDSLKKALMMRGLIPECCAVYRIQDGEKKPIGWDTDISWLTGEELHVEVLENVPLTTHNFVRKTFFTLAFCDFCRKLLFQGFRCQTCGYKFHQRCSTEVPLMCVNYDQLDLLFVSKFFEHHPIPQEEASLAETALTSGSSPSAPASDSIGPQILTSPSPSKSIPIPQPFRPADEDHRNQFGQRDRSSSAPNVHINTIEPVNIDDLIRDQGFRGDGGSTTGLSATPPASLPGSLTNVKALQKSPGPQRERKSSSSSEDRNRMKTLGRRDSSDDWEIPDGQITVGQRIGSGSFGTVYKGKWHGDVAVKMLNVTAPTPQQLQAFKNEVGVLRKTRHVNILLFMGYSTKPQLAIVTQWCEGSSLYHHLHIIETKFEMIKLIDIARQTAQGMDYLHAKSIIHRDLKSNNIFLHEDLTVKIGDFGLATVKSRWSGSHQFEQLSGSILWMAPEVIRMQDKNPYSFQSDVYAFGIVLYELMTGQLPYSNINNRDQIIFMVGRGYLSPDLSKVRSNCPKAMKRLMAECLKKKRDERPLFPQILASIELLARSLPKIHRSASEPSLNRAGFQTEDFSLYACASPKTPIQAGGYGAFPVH", "settings": "Compound concentration 1000.0 nM"}, "[20]": {"target": "Serine/threonine-protein kinase BRSK1 (Homo sapiens) (UniProt Q8TDC3)", "settings": "Compound concentration 1000.0 nM"}, "[21]": {"target": "Cyclin-dependent kinase 7 (Homo sapiens) (UniProt P50613)", "sequence (P50613 whole entry)": "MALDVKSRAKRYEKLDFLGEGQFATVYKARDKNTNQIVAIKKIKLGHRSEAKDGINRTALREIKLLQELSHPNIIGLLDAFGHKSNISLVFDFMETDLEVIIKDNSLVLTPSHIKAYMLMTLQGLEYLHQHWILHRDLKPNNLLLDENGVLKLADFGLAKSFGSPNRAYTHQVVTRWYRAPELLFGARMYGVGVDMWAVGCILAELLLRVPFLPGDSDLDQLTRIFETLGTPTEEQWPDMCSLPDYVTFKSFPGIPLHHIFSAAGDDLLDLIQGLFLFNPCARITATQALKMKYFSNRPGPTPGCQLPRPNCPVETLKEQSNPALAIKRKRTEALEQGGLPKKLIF", "settings": "Compound concentration 1000.0 nM"}, "[22]": {"target": "Discoidin domain-containing receptor 2 (Homo sapiens) (UniProt Q16832)", "settings": "Compound concentration 1000.0 nM"}, "[23]": {"target": "Serine/threonine-protein kinase 38 (Homo sapiens) (UniProt Q15208)", "settings": "Compound concentration 1000.0 nM"}, "[24]": {"target": "Interleukin-1 receptor-associated kinase 1 (Homo sapiens) (UniProt P51617)", "settings": "Compound concentration 1000.0 nM"}, "[25]": {"target": "Vascular endothelial growth factor receptor 2 (Homo sapiens) (UniProt P35968)", "settings": "Compound concentration 1000.0 nM"}, "[26]": {"test_system": "Receptor-type tyrosine-protein kinase FLT3 (Homo sapiens), P36888 [UNDEFINED MUTATION]", "settings": "Compound concentration 1000.0 nM"}, "[27]": {"target": "NT-3 growth factor receptor (Homo sapiens) (UniProt Q16288)", "settings": "Compound concentration 1000.0 nM"}, "[28]": {"target": "Phosphatidylinositol 5-phosphate 4-kinase type-2 beta (Homo sapiens) (UniProt P78356)", "sequence (P78356 whole entry)": "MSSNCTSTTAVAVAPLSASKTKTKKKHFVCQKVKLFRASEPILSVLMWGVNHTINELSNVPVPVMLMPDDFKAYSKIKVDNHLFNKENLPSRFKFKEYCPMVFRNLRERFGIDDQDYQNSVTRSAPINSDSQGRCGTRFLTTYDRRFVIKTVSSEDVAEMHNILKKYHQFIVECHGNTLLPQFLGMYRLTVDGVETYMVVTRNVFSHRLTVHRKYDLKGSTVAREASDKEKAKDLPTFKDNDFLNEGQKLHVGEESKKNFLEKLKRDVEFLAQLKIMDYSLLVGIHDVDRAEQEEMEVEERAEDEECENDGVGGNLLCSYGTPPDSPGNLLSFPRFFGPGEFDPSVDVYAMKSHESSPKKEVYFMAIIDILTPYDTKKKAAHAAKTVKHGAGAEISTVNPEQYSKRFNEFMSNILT", "settings": "Compound concentration 1000.0 nM"}, "[29]": {"test_system": "Tyrosine-protein kinase ABL1 (Homo sapiens), P00519 [H396P]", "settings": "Compound concentration 1000.0 nM"}, "[30]": {"target": "Serine/threonine-protein kinase Sgk2 (Homo sapiens) (UniProt Q9HBY8)", "sequence (Q9HBY8 whole entry)": "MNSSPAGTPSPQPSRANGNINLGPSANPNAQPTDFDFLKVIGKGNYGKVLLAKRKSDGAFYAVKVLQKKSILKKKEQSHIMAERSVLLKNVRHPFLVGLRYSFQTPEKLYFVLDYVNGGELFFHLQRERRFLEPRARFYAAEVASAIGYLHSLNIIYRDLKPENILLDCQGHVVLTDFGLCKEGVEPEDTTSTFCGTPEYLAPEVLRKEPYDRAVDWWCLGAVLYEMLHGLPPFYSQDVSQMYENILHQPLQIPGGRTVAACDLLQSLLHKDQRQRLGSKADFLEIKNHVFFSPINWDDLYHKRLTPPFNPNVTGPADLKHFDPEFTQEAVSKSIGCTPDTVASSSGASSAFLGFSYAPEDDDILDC", "settings": "Compound concentration 1000.0 nM"}, "[31]": {"test_system": "Phosphatidylinositol 4,5-bisphosphate 3-kinase catalytic subunit alpha isoform (Homo sapiens), P42336 [E545K]", "sequence (P42336 whole entry E545K, canonical isoform)": "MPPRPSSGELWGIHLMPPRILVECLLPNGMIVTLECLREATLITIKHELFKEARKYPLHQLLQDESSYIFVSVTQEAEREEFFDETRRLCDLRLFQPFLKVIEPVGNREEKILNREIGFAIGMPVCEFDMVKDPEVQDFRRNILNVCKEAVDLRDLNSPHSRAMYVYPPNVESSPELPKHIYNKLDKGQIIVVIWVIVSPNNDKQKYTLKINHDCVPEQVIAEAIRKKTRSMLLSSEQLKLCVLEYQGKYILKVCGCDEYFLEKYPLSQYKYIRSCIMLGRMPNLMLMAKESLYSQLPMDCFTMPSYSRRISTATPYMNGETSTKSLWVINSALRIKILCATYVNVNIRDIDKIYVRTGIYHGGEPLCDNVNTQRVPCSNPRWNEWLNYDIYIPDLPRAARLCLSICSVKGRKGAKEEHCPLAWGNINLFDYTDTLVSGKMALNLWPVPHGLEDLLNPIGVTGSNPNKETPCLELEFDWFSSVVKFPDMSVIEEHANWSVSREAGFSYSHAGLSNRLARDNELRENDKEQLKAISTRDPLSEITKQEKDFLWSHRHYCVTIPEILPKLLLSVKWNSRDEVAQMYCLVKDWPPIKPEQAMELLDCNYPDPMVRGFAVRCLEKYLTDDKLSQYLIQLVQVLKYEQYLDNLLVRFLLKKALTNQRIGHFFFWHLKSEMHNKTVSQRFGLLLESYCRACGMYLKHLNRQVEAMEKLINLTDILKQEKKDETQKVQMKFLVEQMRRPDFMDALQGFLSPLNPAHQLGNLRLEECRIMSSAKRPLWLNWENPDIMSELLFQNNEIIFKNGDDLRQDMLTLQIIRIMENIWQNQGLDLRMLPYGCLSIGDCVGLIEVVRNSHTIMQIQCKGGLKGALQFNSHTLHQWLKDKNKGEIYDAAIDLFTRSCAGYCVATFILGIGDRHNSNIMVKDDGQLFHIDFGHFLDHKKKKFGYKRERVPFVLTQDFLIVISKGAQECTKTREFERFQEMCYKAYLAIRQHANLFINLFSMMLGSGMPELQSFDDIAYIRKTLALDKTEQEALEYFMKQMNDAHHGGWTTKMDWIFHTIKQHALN", "settings": "Compound concentration 1000.0 nM"}, "[32]": {"target": "Cyclin-dependent kinase 17 (Homo sapiens) (UniProt Q00537)", "settings": "Compound concentration 1000.0 nM"}, "[33]": {"target": "Cyclin-dependent kinase 14 (Homo sapiens) (UniProt O94921)", "settings": "Compound concentration 1000.0 nM"}, "[34]": {"test_system": "Tyrosine-protein kinase ABL1 (Homo sapiens), P00519 [Y253F]", "settings": "Compound concentration 1000.0 nM"}, "[35]": {"target": "Calcium/calmodulin-dependent protein kinase kinase 1 (Homo sapiens) (UniProt Q8N5S9)", "settings": "Compound concentration 1000.0 nM"}}, "note": "pKi: −log10 of the molar value."}
{"compound": "CC(C)(C)OC(=O)N1CCCC1CNC1CCC(c2cc(F)ccc2F)(S(=O)(=O)c2ccc(Cl)cc2)CC1", "note": "(stereo not given) [GSI-NC]", "values": [{"measurement": "pKi", "setting": "[1]", "value": 6.32}, {"measurement": "pKi", "setting": "[2]", "value": 5.61}, {"measurement": "pKi", "setting": "[3]", "value": 7.68}]}
{"compound": "O=S(=O)(NC1CCC(c2cc(F)ccc2F)(S(=O)(=O)c2ccc(Cl)cc2)CC1)C(F)(F)F", "note": "(stereo not given) [MRK-560]", "values": [{"measurement": "residual activity", "setting": "[4]", "value": 77, "unit": "%"}, {"measurement": "residual activity", "setting": "[5]", "value": 100, "unit": "%"}, {"measurement": "residual activity", "setting": "[6]", "value": 98, "unit": "%"}, {"measurement": "residual activity", "setting": "[7]", "value": 75, "unit": "%"}, {"measurement": "residual activity", "setting": "[8]", "value": 88, "unit": "%"}, {"measurement": "residual activity", "setting": "[9]", "value": 95, "unit": "%"}, {"measurement": "residual activity", "setting": "[10]", "value": 70, "unit": "%"}, {"measurement": "residual activity", "setting": "[11]", "value": 100, "unit": "%"}, {"measurement": "residual activity", "setting": "[12]", "value": 100, "unit": "%"}, {"measurement": "residual activity", "setting": "[13]", "value": 76, "unit": "%"}, {"measurement": "residual activity", "setting": "[14]", "value": 100, "unit": "%"}, {"measurement": "residual activity", "setting": "[15]", "value": 92, "unit": "%"}, {"measurement": "residual activity", "setting": "[16]", "value": 85, "unit": "%"}, {"measurement": "residual activity", "setting": "[17]", "value": 89, "unit": "%"}, {"measurement": "residual activity", "setting": "[18]", "value": 97, "unit": "%"}, {"measurement": "residual activity", "setting": "[19]", "value": 93, "unit": "%"}, {"measurement": "residual activity", "setting": "[20]", "value": 92, "unit": "%"}, {"measurement": "residual activity", "setting": "[21]", "value": 100, "unit": "%"}, {"measurement": "residual activity", "setting": "[22]", "value": 100, "unit": "%"}, {"measurement": "residual activity", "setting": "[23]", "value": 100, "unit": "%"}, {"measurement": "residual activity", "setting": "[24]", "value": 93, "unit": "%"}, {"measurement": "residual activity", "setting": "[25]", "value": 100, "unit": "%"}, {"measurement": "residual activity", "setting": "[26]", "value": 91, "unit": "%"}, {"measurement": "residual activity", "setting": "[27]", "value": 91, "unit": "%"}, {"measurement": "residual activity", "setting": "[28]", "value": 68, "unit": "%"}, {"measurement": "residual activity", "setting": "[29]", "value": 100, "unit": "%"}, {"measurement": "residual activity", "setting": "[30]", "value": 93, "unit": "%"}, {"measurement": "residual activity", "setting": "[31]", "value": 77, "unit": "%"}, {"measurement": "residual activity", "setting": "[32]", "value": 100, "unit": "%"}, {"measurement": "residual activity", "setting": "[33]", "value": 100, "unit": "%"}, {"measurement": "residual activity", "setting": "[34]", "value": 100, "unit": "%"}, {"measurement": "residual activity", "setting": "[35]", "value": 100, "unit": "%"}]}
